{
  "source": "patent US20250361230A1",
  "about": "“LATS Inhibitors and Uses Thereof” (The USA, as Represented by the Secretary, Dept. of Heath …, priority 2022, published 2025)",
  "key": {"LATS1": {"target": "T1, LATS1 (Homo sapiens, UniProt O95835)", "T1 sequence (O95835 1-1130)": "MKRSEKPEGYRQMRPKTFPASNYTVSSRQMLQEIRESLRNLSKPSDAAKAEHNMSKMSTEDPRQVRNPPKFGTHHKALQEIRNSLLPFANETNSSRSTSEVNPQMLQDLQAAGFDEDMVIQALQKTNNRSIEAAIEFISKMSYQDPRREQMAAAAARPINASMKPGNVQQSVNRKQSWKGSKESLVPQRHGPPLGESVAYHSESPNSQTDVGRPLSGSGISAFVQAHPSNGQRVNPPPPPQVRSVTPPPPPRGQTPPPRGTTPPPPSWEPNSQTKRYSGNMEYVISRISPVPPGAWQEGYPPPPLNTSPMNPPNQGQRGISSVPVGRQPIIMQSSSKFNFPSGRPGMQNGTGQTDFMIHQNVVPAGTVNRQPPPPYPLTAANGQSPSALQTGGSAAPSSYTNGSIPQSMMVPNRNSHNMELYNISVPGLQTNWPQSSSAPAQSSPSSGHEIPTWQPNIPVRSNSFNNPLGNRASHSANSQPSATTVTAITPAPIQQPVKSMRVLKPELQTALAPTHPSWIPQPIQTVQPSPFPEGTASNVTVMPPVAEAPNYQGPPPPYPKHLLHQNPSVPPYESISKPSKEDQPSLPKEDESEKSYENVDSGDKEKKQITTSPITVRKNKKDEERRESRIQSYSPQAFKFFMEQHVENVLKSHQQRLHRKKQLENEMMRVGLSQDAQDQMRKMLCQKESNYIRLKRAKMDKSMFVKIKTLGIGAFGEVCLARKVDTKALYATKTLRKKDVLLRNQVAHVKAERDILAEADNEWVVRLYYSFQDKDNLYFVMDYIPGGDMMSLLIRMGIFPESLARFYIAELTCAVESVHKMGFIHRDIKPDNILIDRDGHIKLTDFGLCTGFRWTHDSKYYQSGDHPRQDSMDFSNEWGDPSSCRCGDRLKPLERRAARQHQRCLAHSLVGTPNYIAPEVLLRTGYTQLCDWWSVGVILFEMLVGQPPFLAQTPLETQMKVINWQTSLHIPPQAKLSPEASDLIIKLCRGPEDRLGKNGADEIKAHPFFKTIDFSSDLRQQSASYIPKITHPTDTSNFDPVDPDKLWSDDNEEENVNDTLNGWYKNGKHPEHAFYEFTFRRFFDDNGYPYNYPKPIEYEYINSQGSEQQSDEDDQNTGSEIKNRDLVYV", "test": "RBC HotSpot kinase assay (33P-ATP, P81 filter-binding), LATS1", "type": "biochemical", "conditions": "biochemical kinase inhibition; read-out: LATS1 IC50", "method_in_brief": "(§1)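 Hepes pH 7.5/MgCl2/EGTA/Brij35/BSA/Na3VO4/DTT buffer, cofactors per kinase; cpd acoustically dispensed, 20 min preinc RT; start w/ 33P-ATP, 2 h RT; P81 filter readout; 10-pt singlet IC50.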"}, "LATS2": {"target": "T2, LATS2 (Homo sapiens, UniProt Q9NRM7)", "T2 sequence (Q9NRM7 1-1088)": "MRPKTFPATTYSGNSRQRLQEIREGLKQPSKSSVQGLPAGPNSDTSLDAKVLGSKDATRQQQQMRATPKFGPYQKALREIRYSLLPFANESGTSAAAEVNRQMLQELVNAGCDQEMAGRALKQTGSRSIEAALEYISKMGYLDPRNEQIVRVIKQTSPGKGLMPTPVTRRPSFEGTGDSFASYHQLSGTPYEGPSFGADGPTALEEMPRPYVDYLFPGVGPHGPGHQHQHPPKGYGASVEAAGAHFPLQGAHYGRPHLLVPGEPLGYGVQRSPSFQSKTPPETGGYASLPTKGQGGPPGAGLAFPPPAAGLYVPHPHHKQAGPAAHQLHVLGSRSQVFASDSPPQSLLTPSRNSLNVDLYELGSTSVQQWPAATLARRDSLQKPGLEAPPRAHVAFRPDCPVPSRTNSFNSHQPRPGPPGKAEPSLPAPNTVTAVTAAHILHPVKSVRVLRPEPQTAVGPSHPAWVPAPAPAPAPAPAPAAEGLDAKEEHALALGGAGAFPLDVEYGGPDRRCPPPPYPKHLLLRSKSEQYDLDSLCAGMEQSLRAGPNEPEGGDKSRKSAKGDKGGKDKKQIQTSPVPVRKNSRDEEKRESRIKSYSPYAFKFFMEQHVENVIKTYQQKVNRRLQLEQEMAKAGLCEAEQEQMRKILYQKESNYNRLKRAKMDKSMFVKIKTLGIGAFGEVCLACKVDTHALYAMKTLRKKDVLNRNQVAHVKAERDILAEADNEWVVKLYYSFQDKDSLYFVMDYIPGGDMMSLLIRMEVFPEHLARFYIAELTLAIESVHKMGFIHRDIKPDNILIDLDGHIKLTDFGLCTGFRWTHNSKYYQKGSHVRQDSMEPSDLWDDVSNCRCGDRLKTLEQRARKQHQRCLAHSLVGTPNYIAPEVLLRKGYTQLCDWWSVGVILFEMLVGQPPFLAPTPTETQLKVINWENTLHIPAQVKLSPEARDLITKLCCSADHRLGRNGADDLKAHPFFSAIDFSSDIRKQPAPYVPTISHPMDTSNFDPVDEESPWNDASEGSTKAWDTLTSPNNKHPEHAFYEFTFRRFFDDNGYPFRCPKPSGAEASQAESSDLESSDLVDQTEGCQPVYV", "test": "RBC HotSpot kinase assay (33P-ATP, P81 filter-binding), LATS2", "type": "biochemical", "conditions": "biochemical kinase inhibition; read-out: LATS2 IC50", "method_in_brief": "as §1"}},
  "data": [
    {"compound": "Cc1cc(-c2ccnc3[nH]cc(C#N)c23)ccc1[C@@]1(O)[C@H](C)CN(C2CCS(=O)(=O)CC2)C[C@@H]1C", "note": "[Compound 2003, 4-(4-((3S,4s,5R)-1-(1,1-dioxidotetrahydro-2H-thiopyran-4-yl)-4-hydroxy-3,5-dimethylpiperidin-4-yl)-3-methylphenyl)-1H-pyrrolo[2,3-b]pyridine-3-carbonitrile]", "values": [
      {"measurement": "IC50", "setting": "LATS1", "value": 5.6, "unit": "nM"},
      {"measurement": "IC50", "setting": "LATS2", "value": 2.6, "unit": "nM"}
    ]}
  ]
}
